# A melting point compilation (Tetko et al.; mined from patent text by program, amines drawn as free bases though some values may be those of a salt)
# Residues, ends and D or L forms follow the SMILES beside them. *: point of attachment. Cbz = O=C(OCc1ccccc1)*
row,SMILES,melting point
1,CCN(CC)CCNc1cccc2c1C(=O)c1c(NCCN(CC)CC)cccc1C2=O,104 to 106 °C
2,COc1cccc(-c2cc(C)cc3c2OC(CN)C3)c1OC (stereo not drawn),97 to 99 °C
3,CN1CCN(C(=O)Nc2ccc3c(c2)NC(=O)/C3=C\c2ccc[nH]2)C1=O,267 to 272 °C
4,O=C(O)c1ccc2n1Cc1ccccc1N(C(=O)COc1ccc(Cl)cc1)C2,168 °C
5,c1cnc2[nH]c(-c3ccc(C4OCCCO4)cc3)cc2n1,288 to 289 °C
6,CCn1cc(C(=O)Nc2cc(Oc3ccc4nc(NC(=O)C5CC5)cn4n3)ccc2F)c(C)n1,199 °C
7,c1ccc2c(c1)NCc1cscc1N2,167 to 169 °C
8,CCC(C)(C)OC(=O)NC(C)(Cc1c[nH]c2ccccc12)C(=O)NCCc1ccc(Cl)cc1 (stereo not drawn),150 to 153 °C
9,CC(=O)C1(C)COC(C)(C)OC1,48 to 50 °C
10,COc1cc(N)c(S(C)(=O)=O)cc1C(=O)NCC1CCCN1C (stereo not drawn),190 to 191 °C
11,CCOC(=O)C(=CC=C(SC)C(=O)c1ccccc1)N(C)C,78 °C
12,COc1ccc(C(=O)c2ccc3cc(OC)ccc3c2-c2ccccc2)cc1,122 to 124 °C
13,CCN(CC)Cc1ccc(N=C2NCCN2)c(Cl)c1,113 to 115 °C
14,COc1cc2c(cc1-c1ncco1)-c1c(-c3cncs3)c3c(n1CC2)C(=O)N(C(C)(C)C)CCCC3,205 to 207 °C
15,C=CCNC(=S)Nc1cc(=N)n2c(n1)SCC2,225 to 226 °C
16,CN(CC(=O)N[C@@H](CCC(N)=O)C(N)=O)C(=O)OCc1ccccc1,186 to 196 °C
17,NSc1nccnc1Cl,113 to 114 °C
18,CON(C)C(=O)c1cc2c3c(c1)c(-c1cccc(Cl)c1)cc(=O)n3CC2,162 °C
19,O=C1C2=C(C=CCN2)CCc2ccc(F)cc21,78 to 81 °C
20,CC(C)c1ccc(O[C@@H](Cc2ccc(OCCNC(=O)c3ccc(-c4ccccn4)cc3)cc2)C(=O)O)cc1,100 to 101 °C
21,CCCC(=O)C(=O)NCC(=O)c1cccnc1,80 to 82 °C
22,Cc1cc2c(Cl)ccc(-n3c(=O)cc(C(F)(F)F)n(C)c3=O)c2o1,206 to 207 °C
23,O=C(O)c1ccc2c(c1)COCC2,140 to 142 °C
24,COc1cc2c(Nc3cc(OC)c(Cl)cc3Cl)c(C#N)cnc2cc1F,219 to 221 °C
25,Cn1cnc(S(=O)(=O)NCCc2ccc(OCC(=O)O)cc2)c1,203 to 204 °C
26,O=S(=O)(O)CCN1CCOCC1,68 to 78 °C

row,SMILES,melting point
1,CCCCc1oc2ccccc2c1C(=O)NCc1ccc2c(Br)c(OCC#N)ccc2c1,154 to 157 °C
2,CC(Cc1ccccc1)CN(C)C1CCC(c2ccc3[nH]c(=O)oc3c2)CC1 (stereo not drawn),43 to 48 °C
3,CC1CCC(=NNc2ccccc2)c2ncc(Br)c(=O)n21 (stereo not drawn),190 to 192 °C
4,CC1(CCCn2cc(C=O)c3ccccc32)OCCO1,52 to 55 °C
5,Cc1ccccc1Oc1cccc2c1OC(=O)C2C (stereo not drawn),45 to 46 °C
6,O=C(O)COc1cccc2c(CNS(=O)(=O)Cc3ccccc3)coc12,191 to 192 °C
7,Cc1sc(CCc2ccc(C=O)cc2)nc1-c1ccccc1,66 to 67 °C
8,CC(=O)n1[nH]c(=O)n(-c2ccccc2)c1=O,215 to 218 °C
9,CC(=O)Nc1cccc2c(-c3ccccc3)c([N+](=O)[O-])oc12,224 to 226 °C
10,COC(=O)c1cc(C#CCOC2CCCCO2)c(C(F)(F)F)cc1N (stereo not drawn),88 °C
11,CCc1c(C)n(C)c2ccc(NC(=O)Nc3ccccn3)cc12,120 to 123 °C
12,COc1ccc2[nH]c(S(=O)Cc3cc(N)c(Br)cn3)nc2c1 (stereo not drawn),130 to 132 °C
13,CC(=O)c1ccc(C2=CC3CCCC3C2=O)cc1 (stereo not drawn),76 to 77 °C
14,O=C(O)Cc1ccc(OCc2cc(Cl)ccc2C(=O)O)cc1,197 to 201 °C
15,COC(=O)C(Cc1ccc(O)cc1)NC(=O)C(CO)NC(=O)C(Cc1c[nH]c2ccccc12)NC(=O)OCc1ccccc1 (stereo not drawn) (Cbz-Trp-Ser-Tyr-OMe; configuration not given here),149 to 152 °C
16,CC(C)OC(=S)NC1(N=NC(C)(C)C)CCCCC1,62 to 64 °C
17,Nc1ccc(S(=O)(=O)Nc2nc(-c3cccc([N+](=O)[O-])c3)cs2)cc1,191 to 193 °C
18,CN1CCN(CCCNc2ncc3cc(-c4c(Cl)cccc4Cl)c(NC(=O)Nc4ccc(C(F)(F)F)cc4)nc3n2)CC1,146 to 151 °C
19,CC(=O)N1CCN=C1Nc1cc(C)nn1-c1ccccc1,153 to 162 °C
20,Cc1ccc(-c2ccc(C(=O)CCC(=O)O)cc2)cc1,183 to 186 °C
21,CCCN(CCC)c1c([N+](=O)[O-])cc(C)c(C)c1[N+](=O)[O-],42 to 43.5 °C
22,COC(=O)c1cccc(S(=O)(=O)Cc2c(O)ccc3c2CCCC3=O)c1,230 to 232 °C
23,CSCC(=O)[C@H](Cc1ccccc1)NC(=O)[C@H](CC(C)C)NC(=O)OC(C)(C)C,117 to 118 °C
24,COC(=O)c1ccc2oc(CCc3cc4cc(C(=O)OC)ccc4o3)cc2c1,165 to 167 °C
25,Cc1ccc2c([N+](=O)[O-])cc([N+](=O)[O-])c(O)c2n1,295 to 300 °C
26,CC(C)(C)c1cc(N=C2CCc3cc4c(nc32)C(=Nc2cc(C(C)(C)C)cc(C(C)(C)C)c2)CC4)cc(C(C)(C)C)c1,177 to 183 °C

row,SMILES,melting point
1,CC(=O)CCCCC(=O)Nc1ccc(CCC(=O)O)cc1,148 to 160 °C
2,OC[C@H](O)[C@H](O)[C@@H](O)[C@@H](O)C=NNc1ccccc1,198 to 199 °C
3,CC(=O)NCc1ccc2c(Cl)cn(C3CCN(CCc4ccc(F)cc4)CC3)c2c1,101 to 102 °C
4,CC12CCC(O)CC1=CCC1C2CCC2(C)C(c3ccco3)=CCC12 (stereo not drawn),105 to 116 °C
5,c1ccc(C(c2ccc3[nH]nnc3c2)n2cncn2)cc1 (stereo not drawn),183 °C
6,Fc1nc(Oc2ccc(CCNc3ncnc4nccnc34)cc2)c(F)c(C(F)(F)F)c1F,103 to 108 °C
7,CS(=O)(=O)Nc1ccc(Cl)c([N+](=O)[O-])c1,163 °C
8,Cc1ccc(S(=O)(=O)Cc2ccc([N+](=O)[O-])cc2)cc1,188 to 190 °C
9,CCOC(=O)c1cnc2c(NC(=O)c3c(Cl)cccc3Cl)cccc2c1C,159 to 162 °C
10,CNC(=O)CC1=CSC2=C(C(=O)OC(C)C)C(C)CN12 (stereo not drawn),203 to 205 °C
11,C=CCC1(CCNC(=O)C2CC2)c2cc(OC)ccc2CCC12OCCO2 (stereo not drawn),94 to 95 °C
12,CC(=O)OC1CSC(Oc2cc(-c3ccnc(F)c3)cnc2F)C(OC(C)=O)C1OC(C)=O (stereo not drawn),142 to 144 °C
13,Cc1ncc(COC(=O)c2ccncc2)cc1O,180 °C
14,CCOCc1nc2c(N)nc3ccccc3c2n1CC1(N)CCOCC1,53 to 63 °C
15,CC(=O)c1c[nH]c2nccc(OCC3CCCCC3)c12,> 210 °C
16,COC1CC(c2ccc(-c3ccc(C#N)cc3)cc2)C(OC)O1 (stereo not drawn),149 to 150 °C
17,N=C(N)c1ccc(C(=O)N[C@@H](Cc2ccc(O)cc2)C(=O)N2CCC(OCC(=O)O)CC2)cc1,88 to 90 °C
18,CCOC(=O)Oc1ccc(S(=O)(=O)N2c3cc(F)c(F)c(F)c3-n3cccc3C2CC)cc1 (stereo not drawn),131 to 132 °C
19,O=c1ccc(S(=O)(=O)n2cccc2)n[nH]1,140 to 145 °C
20,CCOC(=O)CCc1ccc(OCCN2CCCC2=O)cc1O,112 to 115 °C
21,O=C(Nc1ccc(Br)cc1CO)C(F)(F)F,97 to 103 °C
22,CNC(=O)Cn1c(=O)c(=O)[nH]c2cc(C(F)(F)F)c(-n3cccc3)cc21,> 250 °C
23,CS(=O)(=O)Nc1ccc([N+](=O)[O-])cc1C=C1CCCCC1,174 to 175 °C
24,CNC(=O)c1cccc(CNc2n[nH]c3ncnc(Nc4cccc(Cl)c4)c23)c1,252 to 254 °C
25,CCCCCCCCCCCCCCCCCCS(=O)c1cc2ccccc2cc1OC(C)=O (stereo not drawn),91 to 93 °C
26,COc1cc(NC(=O)Nc2cccc3c2C2CC(O)CCN2C3=O)nc2ccccc12 (stereo not drawn),> 260 °C

row,SMILES,melting point
1,O=c1c2c(Cc3ccccc3)n[nH]c2c2cccnc2n1-c1ccc(O)cc1,> 320 °C
2,Cc1ccc(-c2nc(C(=O)Nc3nnn[nH]3)c(C)s2)s1,278 to 280 °C
3,Cc1nc2ccc([N+](=O)[O-])cn2c(=O)c1CCCl,170 °C
4,CCc1nc2c(N)nc3cccnc3c2n1CC1(O)CCN(C(=O)OC(C)(C)C)CC1,233 to 235 °C
5,O=[N+]([O-])c1ccc2c([N+](=O)[O-])c(O)c(O)cc2c1,200 to 207 °C
6,CCCN(CCC)C1Cc2c[nH]c3ccc(C(C)=O)c(c23)C1 (stereo not drawn),148 to 150 °C
7,CN(C)S(=O)(=O)c1ccc(Br)cc1,90 to 92 °C
8,COCCNS(=O)(=O)c1ccc(Nc2nc(OCC3CCCCC3)c3nc[nH]c3n2)cc1,120 to 122 °C
9,CCN(CC)C(=O)/C=C/CSc1nc(N)cc(Cl)n1,143 to 145 °C
10,C=CCc1cc(C)c2c(c1O)C(=O)CC2,41 to 45 °C
11,COc1ccc(-c2c(C)c3cc(OC)ccc3n2CCCCCCBr)cc1,60 °C
12,CCCCCCCCCCCCNC(=O)Nc1sc(C(=O)O)c(C)c1C(=O)OC(C)(C)C,187 to 188 °C
13,O=C1Cc2c([nH]c3ccccc23)-c2ncccc2N1,> 330 °C
14,CON=C(C)c1ccc(NS(C)(=O)=O)c(Sc2ccc(F)cc2F)c1,110 to 111 °C
15,COc1ccc2c(Nc3ccc4cn[nH]c4c3)c(C#N)cnc2c1,> 250 °C
16,CNc1cc(OC)ccc1[N+](=O)[O-],107 to 110 °C
17,CCC(=O)c1cnc2c(c1)oc(=O)n2C,110 to 112 °C
18,N#CCc1c(Br)csc1Br,75.5 to 77 °C
19,NCCCc1cccnc1C(N)=O,153 to 156 °C
20,CCOC(=O)c1cccc(NC(=O)C2=C(C)OCCS2)c1,100 to 102 °C
21,CC1(C)CC(=O)c2cc(C#N)ccc2O1,119 to 120 °C
22,O=C(O)CCCCCCCCCCOc1cc(OCCCCCCCCCCC(=O)O)cc(C(=O)N(CC(=O)O)CC(=O)O)c1,134 to 140 °C
23,COc1cc2c(cc1C(F)(F)F)N(C(=O)Nc1cncc(-c3cnccc3C)c1)CC2,125 to 128 °C
24,CC(O)c1ccc(CCNS(=O)(=O)c2ccc(Br)cc2)cc1 (stereo not drawn),125 to 127 °C
25,CN(Cc1sc2c(=O)c(C(=O)NCc3ccc(Cl)cc3)cn(C)c2c1COCC[Si](C)(C)C)C[C@@H](O)c1ccco1,110 to 113 °C
